Test results: ChEMBL document CHEMBL1201862, “PubChem BioAssay data set” (2004)
The source made the active and inactive calls. For most assays here, no stated cut-off is given here; in the data, actives have a measured EC50 and inactives only a lower limit.

Columns and labels:
[1] = biological target: T1, Corticotropin-releasing factor receptor 2/Corticotropin-releasing factor-binding protein (Homo sapiens, UniProt P24387+Q13324); assay: activators of CRF receptor 2 with binding protein – uHTS hits, confirmation (AID 602473); assay type: functional; settings: read-out: EC50_Mean
T1 sequence (Q13324 whole entry): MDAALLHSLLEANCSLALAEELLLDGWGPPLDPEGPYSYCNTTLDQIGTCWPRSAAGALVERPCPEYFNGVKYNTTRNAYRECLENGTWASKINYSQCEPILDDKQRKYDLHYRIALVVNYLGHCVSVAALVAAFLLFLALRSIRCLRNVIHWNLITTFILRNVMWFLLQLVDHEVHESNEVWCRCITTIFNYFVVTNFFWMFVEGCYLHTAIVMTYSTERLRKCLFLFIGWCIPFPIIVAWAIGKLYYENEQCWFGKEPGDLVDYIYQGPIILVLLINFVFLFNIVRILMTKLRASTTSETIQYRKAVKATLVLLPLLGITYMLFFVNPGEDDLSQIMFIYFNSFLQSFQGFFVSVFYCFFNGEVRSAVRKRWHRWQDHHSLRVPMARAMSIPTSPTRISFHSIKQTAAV
T1 sequence (P24387 whole entry): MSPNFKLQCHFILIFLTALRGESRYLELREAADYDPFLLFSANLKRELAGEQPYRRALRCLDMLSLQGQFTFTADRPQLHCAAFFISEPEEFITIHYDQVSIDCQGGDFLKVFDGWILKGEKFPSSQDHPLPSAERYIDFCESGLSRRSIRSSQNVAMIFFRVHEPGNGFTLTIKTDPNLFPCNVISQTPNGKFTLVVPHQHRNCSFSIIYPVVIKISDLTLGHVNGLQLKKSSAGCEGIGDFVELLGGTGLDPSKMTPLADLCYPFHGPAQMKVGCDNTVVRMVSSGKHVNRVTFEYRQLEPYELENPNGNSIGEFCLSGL

[2] = biological target: T1, Corticotropin-releasing factor receptor 2/Corticotropin-releasing factor-binding protein; assay: Dose Response confirmation of uHTS hits for small molecule antagonists of the CRF-binding protein and CRF-R2 receptor complex.; assay type: functional; settings: read-out: IC50_Mean
[3] = biological target: T2, Ubiquitin-conjugating enzyme E2 N (Homo sapiens, UniProt P61088); assay type: functional;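 further: Dose-response confirmation in a TR-FRET assay detecting UBC13-driven polyubiquitin chain formation, inhibition measured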
T2 sequence (P61088 whole entry): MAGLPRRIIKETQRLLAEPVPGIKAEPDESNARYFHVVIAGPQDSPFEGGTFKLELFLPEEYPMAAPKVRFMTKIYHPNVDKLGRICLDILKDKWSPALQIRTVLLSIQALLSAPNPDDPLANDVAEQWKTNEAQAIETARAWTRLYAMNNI

[4] = biological target: T3, RNA-binding protein pos-1 (Caenorhabditis elegans, UniProt G5EF15); assay: disruptors of C. elegans POS-1 RNA interaction – biochemical, fluorescence polarization, dose response (AID 1964);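 further: purified POS-1 fused to maltose binding protein made in E. coli; potency of compounds blocking POS-1 binding to fluorescent RNA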
T3 sequence (G5EF15 whole entry): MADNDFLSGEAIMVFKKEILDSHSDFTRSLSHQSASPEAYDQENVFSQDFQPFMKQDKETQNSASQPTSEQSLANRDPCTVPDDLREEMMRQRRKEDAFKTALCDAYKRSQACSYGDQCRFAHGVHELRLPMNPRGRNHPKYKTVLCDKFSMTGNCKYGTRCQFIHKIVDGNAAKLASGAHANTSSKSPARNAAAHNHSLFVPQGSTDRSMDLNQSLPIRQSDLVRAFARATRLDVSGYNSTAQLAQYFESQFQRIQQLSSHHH

[5] = biological target: T4, Zinc finger protein mex-5 (Caenorhabditis elegans, UniProt Q9XUB2); assay: potency of MEX-5 RNA-binding blockers – biochemical, C. elegans, fluorescence polarization, dose response (AID 1960)
T4 sequence (Q9XUB2 whole entry): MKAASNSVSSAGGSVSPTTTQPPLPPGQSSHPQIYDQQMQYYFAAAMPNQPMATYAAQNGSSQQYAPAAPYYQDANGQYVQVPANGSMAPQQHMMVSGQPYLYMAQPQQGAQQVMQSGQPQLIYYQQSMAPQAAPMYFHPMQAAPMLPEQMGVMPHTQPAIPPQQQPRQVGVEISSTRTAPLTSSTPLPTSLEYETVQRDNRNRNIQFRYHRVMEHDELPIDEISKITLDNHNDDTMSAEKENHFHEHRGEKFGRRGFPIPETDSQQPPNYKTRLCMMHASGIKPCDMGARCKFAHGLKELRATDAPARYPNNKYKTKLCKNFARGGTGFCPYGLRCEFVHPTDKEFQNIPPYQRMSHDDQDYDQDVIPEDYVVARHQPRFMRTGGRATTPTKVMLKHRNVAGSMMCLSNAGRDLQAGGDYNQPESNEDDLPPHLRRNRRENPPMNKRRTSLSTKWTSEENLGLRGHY

COc1cc(Cl)c(C)cc1NC(=O)CSc1ccc(C)cc1
EC50 [1]: > 53 µM (inactive) | IC50 [2]: > 47.1 µM (inactive)

CC(NC(=O)COC(=O)C1(C)CC1(Cl)Cl)c1ccccc1 (centres undefined)
EC50 [1]: > 53 µM (inactive) | IC50 [2]: > 47.1 µM (inactive)

O=C1/C(=C/c2cccc([N+](=O)[O-])c2)CSc2ccc(Cl)cc21
IC50 [3]: > 20 µM (inactive)

CN(C)c1ccc(-c2nnc(-c3ccc(S(=O)(=O)C(F)F)cc3)o2)cc1
EC50 [4]: 55.7 µM (inconclusive) | EC50 [5]: 31.4 µM (inconclusive)

C=CCNC(S)=NNC(=O)c1ccc(OCC)cc1
EC50 [1]: > 53 µM (inactive) | IC50 [2]: > 47.1 µM (inactive)

C#CCOCCOCCOCCNc1nc(N2CCN(C(=O)[C@H]([C@@H](C)CC)n3cc(CCCN=C(N)N)nn3)CC2)nc(N2CCN(C(=O)[C@H](CCCCN)n3cc(CCCC)nn3)CC2)n1
IC50 [3]: > 20 µM (inactive)

C=CCOn1c(=O)c(-c2cc3ccccc3o2)[n+]([O-])c2ccccc21
EC50 [4]: 28.3 µM (inconclusive) | EC50 [5]: 69.7 µM (inconclusive)

Cc1c(CN2CCCCC2)c(O)n(CCCO)c(=O)c1C#N
EC50 [4]: > 300 µM (not active) | EC50 [5]: > 300 µM (not active)
